For this assay, the system named is virus-stock de souche HSV1. As to the kind of experiment: Virucidal properties on HSV1 stock virus (infectious titre after incubation at 37°C). The assay is classed as cell-based. Here is the method: On a apprécié les propriétés virucides du 3,5-di-t-butyl-4-hydroxybenzoate d'octaoxyéthylèneglycol de formule : [drawing 23] dénommé ci-après par commodité AVF1, sur un échantillon de "virus-stock" de souche HSV1. Le titre infectieux (TV) d'échantillons traités avec AVF1 a été comparé au titre infectieux (TV0) d'un échantillon témoin afin de calculer la valeur log (TV/TV0).
Le protocole a consisté à incuber à 37°C l'échantillon de virus HSV1 stock avec le composé AVF1, en faisant varier la concentration en AVF1 et le temps d'incubation. TV0 a été déterminé à partir d'une composition constituée de 0,5 ml de milieu de culture MEM et 0,5 ml de virus-stock et TV a été déterminée à partir d'une composition constituée de 0,5 ml de AVF1 à diverses concentrations dans ledit milieu MEM et de 0,5 ml de virus-stock. Les valeurs TV0 et TV obtenus sont des multiples de la DI50/ml.
• Concentrations en AVF1 : 0,03; 0,06; 0,12; 0,25; 0,5; 1,25; 2,5; 5 mg/ml. • Temps d'incubation : 60 et 120 minutes. • Résultats : • Titre du témoin-virus : […] DI50/ml. • AVF1 < 2,5 mg/ml : TV. • AVF1 ≥ 2,5 mg/ml : 0. • Conclusions : AVF1 est virucide en 60 minutes à la concentration 2,5 mg/ml.
• Concentrations en AVF1 : 1 et 5 mg/ml. • Temps d'incubation : 5, 15, 30, et 60 minutes. • Résultats : • Titre du témoin-virus : 2 x 10^6 DI50/ml • AVF1 = 5 mg/ml : virucide en 5 minutes, titre = 0. • AVF1 = 1 mg/ml : le titre est réduit de 1,5 log 10 en 60 minutes.

Turning to `CC(C)(C)c1cc(C(=O)OCCOCCOCCOCCOCCOCCOCCOCCO)cc(C(C)(C)C)c1O` [AVF1, 3,5-di-t-butyl-4-hydroxybenzoate d'octaoxyéthylèneglycol], the “concentration virucide en 60 minutes” value (Essai 1, 60 minutes, 37°C) is reported as 2,5 mg/ml. In addition, the “Titre infectieux (TV)” value (Essai 1, AVF1 ≥ 2,5 mg/ml, incubation 60 and 120 minutes, 37°C) amounted to 0 DI50/ml. For the same compound, where the note is “Essai 2, AVF1 = 1 mg/ml, 60 minutes”, the réduction du titre is on record as 1,5 log 10. Under “Essai 2, AVF1 = 5 mg/ml, virucidal in 5 minutes”, this compound returned a titre of 0 DI50/ml.
